Assay results: patent publication US20070010541A1, “Methods for treating vascular diseases” (The General Hospital Corporation, priority 2003, published 2007)

Key:
grl−/− embryos = experiment: Whole-organism chemical suppressor screen: suppression of the gridlock phenotype, circulation to the tail; assay type: in vivo, zebrafish; conditions: for suppression of the gridlock phenotype (restoring circulation to the tail): grl−/− embryos in 96-well plates, circulation examined after 48 hours of development
Protocol: We arrayed grl−/− embryos in 96-well plates, exposed them to small molecules from a structurally-diverse chemical library, and examined their circulation after 48 hours of development. The compounds were purchased as 5 mg/mL stock solutions in DMSO from Cambridge Chemical.
Two of 5,000 small molecules examined suppress the gridlock phenotype in grl−/− embryos, restoring circulation to the tail (FIG. 1B). We confirmed the functional restoration of the aorta by microangiography (FIGS. 1A-B) and histology (FIGS. 1E-F).
Angioblasts in zebrafish are first evident around 14 hours postfertilization (hpf) and begin to aggregate at the midline by 16 hpf (Eriksson et al., J. Morphol. 244(3):167-176, 2000; Fouquet et al., Dev. Biol. 183(1):37-48, 1997). The lumen of the aorta begins to form in the posterior trunk at 17.5 hpf, but is not complete until just prior to the initiation of circulation 24 hpf. The critical period for gs4012 suppression is between 12 and 24 hpf (FIG. 2A).
Similarly, when gs4012 is added during gastrulation and washed away at later and later timepoints, the effectiveness of suppression is increased, reaching maximal suppression by […].

VEGF = experiment: Real-time PCR quantitation of gene expression after gs4012 exposure; assay type: in vivo, zebrafish; conditions: 24 hpf
Protocol: In the case of real-time PCR, groups of 20 grl−/− embryos are left untreated or treated with a gridlock suppressor. At 24 hours post fertilization, total RNA can be extracted using the Trizol method. Equivalent amounts of total RNA from each sample can be reverse transcribed into cDNA. This cDNA can serve as template for real-time PCR to determine the relative expression quantities for the genes listed above. RT-PCR can be performed with an Applied Biosystems Sequence Detection System 7000. Taqman probes and primers can be designed using zebrafish genomic sequences made publicly available by the Wellcome Trust Sanger Institute.
We used real-time PCR to quantitate the expression of several genes believed to play roles in angioblast cell fate determination or migration. […] VEGF plays an important role in formation of the aorta. VEGF122 expression in the Xenopus hypochord acts as a chemoattractant, stimulating angioblast migration to the midline prior to aorta formation (Cleaver et al., Development 125(19):3905-3914, 1998). […]

SMILES: O=[N+]([O-])c1ccc(SCCc2ccncc2)cc1 [gs3999]
- suppression of the gridlock phenotype (restoring circulation to the tail) (grl−/− embryos): identified as gridlock suppressors

SMILES: COc1ccc(SCCc2ccncc2)cc1 [gs4012]
- time at which maximal suppression is reached (grl−/− embryos; added during gastrulation and washed away at later timepoints): ≤ 30 hpf
- reversibility of suppression after removal of the suppressor (grl−/− embryos; after removal of suppressor): suppression is irreversible
- viability of rescued mutants (grl−/− embryos; after removal of suppressor): remain viable to adulthood
- suppression of the gridlock phenotype (restoring circulation to the tail) (grl−/− embryos): identified as gridlock suppressors
- relative potency as gridlock suppressor (grl−/− embryos; grl−/− embryos, dose response): more potent suppressor than gs3999
- suppression when treatment begins after 24 hpf (grl−/− embryos; treatment begins after 24 hpf): Little or no suppression
- VEGF expression (VEGF): upregulated
